In PubChem BioAssay (NCI):
Values joined by “and” are separate entries in the source; they are usually repeats but may differ in a detail not shown here. Identical values can stand only once.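 Growth conditions: 96-well plates. Treatment: test compound, 48 hours, 5 concentrations. Analysis: linear interpolation between bracketing concentrations; unreached endpoints set to highest concentration. GI50 is the concentration that inhibits growth by half. TGI: total growth inhibition.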

Legend:
Assay in all cases: NCI anticancer screen, dose series, 48 h
BT-549 breast = tested on: BT-549 breast
NCI/ADR-RES ovarian = tested on: NCI/ADR-RES ovarian
MDA-N = tested on: MDA-N
OVCAR-3 ovarian = tested on: OVCAR-3 ovarian
T-47D breast = tested on: T-47D breast
OVCAR-8 ovarian = tested on: OVCAR-8 ovarian
SW-620 colon = tested on: SW-620 colon
CAKI-1 renal = tested on: CAKI-1 renal
RXF 393 renal = tested on: RXF 393 renal
A549 NSCLC = tested on: A549 NSCLC
TK-10 renal = tested on: TK-10 renal
RPMI-8226 leukemia = tested on: RPMI-8226 leukemia
SF-539 CNS = tested on: SF-539 CNS
HOP-62 NSCLC = tested on: HOP-62 NSCLC
EKVX NSCLC = tested on: EKVX NSCLC
SNB-19 CNS = tested on: SNB-19 CNS
UACC-62 melanoma = tested on: UACC-62 melanoma
SF-268 CNS = tested on: SF-268 CNS
SN12C renal = tested on: SN12C renal
CCRF-CEM leukemia = tested on: CCRF-CEM leukemia
SNB-75 CNS = tested on: SNB-75 CNS
NCI-H226 lung = tested on: NCI-H226 lung
LOX IMVI melanoma = tested on: LOX IMVI melanoma
SK-OV-3 ovarian = tested on: SK-OV-3 ovarian
COLO 205 colon = tested on: COLO 205 colon
DU-145 prostate = tested on: DU-145 prostate
786-0 renal = tested on: 786-0 renal
HOP-92 NSCLC = tested on: HOP-92 NSCLC
M14 melanoma = tested on: M14 melanoma
NCI-H460 lung = tested on: NCI-H460 lung

With `COC(=O)c1ccc(=O)c2nc3/c(=C/O)c(O)cc(=O)c3[nH]c12` the GI50 (BT-549 breast) was 0.347 µM, the TGI (BT-549 breast) was 6.14 µM and 12.1 µM and the GI50 (NCI/ADR-RES ovarian) was 0.379 µM. For the same compound, the TGI (NCI/ADR-RES ovarian) was > 33.6 µM and 13.8 µM, the TGI (MDA-N) was 24.6 µM and the GI50 (OVCAR-3 ovarian) was 1.04 µM. For the same compound, the TGI (OVCAR-3 ovarian) was 25.7 µM and 15 µM, the GI50 (T-47D breast) was 1.29 µM and the TGI (T-47D breast) was 8.65 µM and 48.2 µM. For the same compound, the GI50 (OVCAR-8 ovarian) was 0.364 µM, the TGI (OVCAR-8 ovarian) was 2.95 µM and 24.9 µM and the GI50 (SW-620 colon) was 1.21 µM. For the same compound, the TGI (SW-620 colon) was > 60.4 µM and 18.9 µM, the GI50 (CAKI-1 renal) was 0.581 µM and the TGI (CAKI-1 renal) was 12.8 µM and 12.6 µM. The GI50 (RXF 393 renal) was 0.637 µM, the TGI (RXF 393 renal) was 43.3 µM and 17.1 µM and the GI50 (A549 NSCLC) was 0.514 µM. For the same compound, the TGI (A549 NSCLC) was 14.3 µM and 45 µM, the GI50 (TK-10 renal) was 1.3 µM and the TGI (TK-10 renal) was 21.1 µM and 17.5 µM. The GI50 (RPMI-8226 leukemia) was 0.393 µM, the TGI (RPMI-8226 leukemia) was 30.7 µM and 3.93 µM and the GI50 (SF-539 CNS) was 1.21 µM. The TGI (SF-539 CNS) was 15.6 µM and 14.5 µM, the GI50 (HOP-62 NSCLC) was 0.461 µM and the TGI (HOP-62 NSCLC) was 18.7 µM and 16.2 µM. For the same compound, the GI50 (EKVX NSCLC) was 0.557 µM, the TGI (EKVX NSCLC) was 8.52 µM and 14.2 µM and the GI50 (SNB-19 CNS) was 1.28 µM. For the same compound, the TGI (SNB-19 CNS) was 32.2 µM and 20.4 µM, the GI50 (UACC-62 melanoma) was 1.01 µM and the TGI (UACC-62 melanoma) was 7.26 µM and 7.01 µM. The GI50 (SF-268 CNS) was 1.2 µM, the TGI (SF-268 CNS) was 24.9 µM and 18.6 µM and the GI50 (SN12C renal) was 0.44 µM. The TGI (SN12C renal) was 20 µM and 12.8 µM, the GI50 (CCRF-CEM leukemia) was 0.397 µM and the TGI (CCRF-CEM leukemia) was > 100 µM and 17.2 µM. For the same compound, the GI50 (SNB-75 CNS) was 0.482 µM, the TGI (SNB-75 CNS) was 16.4 µM and 13.6 µM and the GI50 (NCI-H226 lung) was 0.726 µM. The TGI (NCI-H226 lung) was 12.2 µM and 12.8 µM, the GI50 (LOX IMVI melanoma) was 0.662 µM and the TGI (LOX IMVI melanoma) was 20.3 µM and 15.4 µM. For the same compound, the GI50 (SK-OV-3 ovarian) was 2.62 µM, the TGI (SK-OV-3 ovarian) was 16.4 µM and 20.8 µM and the GI50 (COLO 205 colon) was 6.49 µM. The TGI (COLO 205 colon) was > 100 µM, the TGI (DU-145 prostate) was 16.5 µM and 17.6 µM and the GI50 (786-0 renal) was 1.52 µM. For the same compound, the TGI (786-0 renal) was 23.8 µM and 17.9 µM, the TGI (HOP-92 NSCLC) was 6.03 µM and 11.1 µM and the GI50 (M14 melanoma) was 1.07 µM. For the same compound, the TGI (M14 melanoma) was 24.9 µM and 24.5 µM, the GI50 (NCI-H460 lung) was 0.357 µM and the TGI (NCI-H460 lung) was 23.8 µM and 19.7 µM.
